Source: patent publication US9034874B2, “Carbamate/urea derivatives” (NOVARTIS AG, priority 2012, dated 2015)
Like-named read-outs stand apart in the source and are kept apart here.

Legend:
human H3 receptors [1] = molecular target: T1, human H3 receptors (Homo sapiens (Human), UniProt Q9Y5N1); assay: Affinity assessment: displacement of [3H]-N-α-Methylhistamine binding to membranes; settings: membranes containing human H3 receptors, radioligand [3H]-N-α-Methylhistamine
Procedure: The affinity of compounds of the invention to the H3 receptor can be assessed by measuring displacement of binding of the radioligand [3H]-N-α-Methylhistamine (PerkinElmer, #NET1027250UC) to membranes containing human H3 receptors (PerkinElmer, #ES-392-M400UA; GenBank: NM_007232.2; Hill S J et al, International Union of Pharmacology XIII. Classification of histamine receptors, Pharmacol Rev, 49(3), 253-278, 1997).
2. Compound serial dilution: Dilution was performed by BioTek Precision on compound dilution plate. Compound concentrations start at 5 or 10 μM, 10 point dose titrations with 3- or 5-fold serial dilutions.
3. Preparation of 2× membrane solution (25 ml): 1.25 ml human Histamine H3 receptor stock, 23.75 ml assay buffer.
4. Preparation of 2× solution of [3H]-N-α-methylhistamine (25 ml): 4.27 μl [3H]-N-α-methylhistamine stock, 25 ml assay buffer.
5. Assemble binding reaction: (a) transfer 1 μl of compound solution, 1 μl 100% DMSO and 1 μl 1 M (R)(−)-α-Methylhistamine (Sigma, #H128) to the reaction plate at room temperature, (b) transfer 50 μl of 2× protein solution to reaction plate, (c) transfer 49 μl of 2× radioligand solution to reaction plate (Corning® 96 well EIA/RIA plate; Sigma, #CLS3797).
6. Cover the reaction plate with a TopSeal™-A film (Perkin Elmer, #6005185) and incubate at 28° C. for 120 min. Equilibrate Zeba Spin Desalting Plates (Thermo Scientific, #89808) to room temperature for 120 min.
7. Remove the sealing material from the bottom of the filtration plate. Place the plate on a wash plate. Centrifuge at 1000 g for 2 min to remove the storage buffer at room temperature.
8. Transfer 70 μl binding reaction from reaction plate into filtration plates. Place the filtration plates on top of collection plate. Centrifuge the plate assembly at 1000 g for 2 min to collect the protein with bound radioligand. Add 200 μl of Microscint-40 (PerkinElmer, #6013641-1L) to each well of the collection plate. Cover the plates with TopSeal™-A film.
9. Read the plates on Wallac Microbeta Trilux 2450, Instrument settings: counting mode: CPM, counting time: 2 min.
10. Data analysis: GraphPad Prism: log (compound concentration) vs. response; variable slope. The Ki is calculated based on Chang and Prusoff: Ki=IC50/{1+([radioligand]/Kd)}

human H3 receptors [2] = molecular target: T1, human H3 receptors; assay: Potency assessment: blockade of (R)-alpha-methylhistamine-mediated cAMP production (LANCE Ultra cAMP kit); format: cell-based; settings: CHO cells expressing human H3 receptors
Procedure: The potency of compounds of the invention as H3 receptor antagonists can be assessed by measuring the blockade of (R)-alpha-methylhistamine-mediated cAMP production utilizing a LANCE Ultra cAMP kit (PE #TRF0263) in CHO cells expressing human H3 receptors (GenBank: BC096840; Strausberg R L et al, Proc. Natl. Acad. Sci. U.S.A. 99(26), 16899-16903; 2002).
2. Preparation of assay plate: Different concentrations of the compounds of the invention (0.01-1000 nM), H3 positive controls and cAMP calibration standards; […] Forskolin (CALBIOCHEM #344270); 5 μM (R)-alpha-methylhistamine (H3 receptor agonist); 1% DMSO (SIGMA #D2650); total volume: 95 nl.
3. Preparation of the cell solution: Collect cells with stimulation buffer, final density: 100,000 cells/ml.
4. Reaction: (a) transfer 10 μl of cell solution to assay plate, (b) centrifuge at 600 rpm for 3 min and incubate 50 min at room temperature, (c) add 5 μL 4× Eu-cAMP tracer solution (60 μl Eu-cAMP tracer stock solution+2.94 ml cAMP detection buffer) and 5 μL 4× ULight™-anti-cAMP solution (20 μl […]+2.98 ml cAMP detection buffer) to assay plate.
5. Reading plate on EnVision: flash energy: 100%; excitation filter: 111 UV2 320; emission filter: 203 (Eu 615) and 205 (APC 665); number of laser flashes: 20; window: 100 μs; laser mirror module: 445 or 446; laser cycle: 16,600 μs.
6. Data analysis by GraphPad Prism: log (compound concentration) vs. response; variable slope.

[3] = Solubility of solid forms in aqueous media; format: physicochemical

T1 sequence (Q9Y5N1 whole entry): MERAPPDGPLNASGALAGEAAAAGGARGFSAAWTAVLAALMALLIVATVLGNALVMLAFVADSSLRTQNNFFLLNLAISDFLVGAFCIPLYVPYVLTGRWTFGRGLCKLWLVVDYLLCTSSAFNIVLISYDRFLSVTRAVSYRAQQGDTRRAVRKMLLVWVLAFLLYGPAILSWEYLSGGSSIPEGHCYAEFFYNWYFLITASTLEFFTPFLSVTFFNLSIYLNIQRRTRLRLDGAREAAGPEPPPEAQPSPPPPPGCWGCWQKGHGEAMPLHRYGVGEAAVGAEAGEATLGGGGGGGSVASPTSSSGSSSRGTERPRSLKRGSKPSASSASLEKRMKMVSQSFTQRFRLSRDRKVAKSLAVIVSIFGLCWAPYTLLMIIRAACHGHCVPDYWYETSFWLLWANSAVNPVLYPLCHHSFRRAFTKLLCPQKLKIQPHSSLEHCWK

Ki (human H3 receptors [1]) [nM] | Ki (human H3 receptors [2]) [nM] | solubility in aqueous media ([3]; across a pH range from about 1-8) | solubility in aqueous media [3] | SMILES
25 | 0.5 |  |  | O=C(OC1CCN(c2cc[nH]c(=O)c2)CC1)N1CCN(C2CCC2)CC1 [Example 2.2, 1-(2-oxo-1,2-dihydropyridin-4-yl)piperidin-4-yl 4-cyclobutylpiperazine-1-carboxylate]
20 | 3.1 |  |  | CC(C)N1CCN(C(=O)OC2CCN(c3ccn(C)c(=O)c3)CC2)CC1 [Example 2.1, 1-(1-methyl-2-oxo-1,2-dihydropyridin-4-yl)piperidin-4-yl 4-isopropylpiperazine-1-carboxylate]
25 | 1.1 |  |  | Cn1nc(N2CCC(OC(=O)N3CCN(C4CCC4)CC3)CC2)ccc1=O [Example 1.5, 1-(1-methyl-6-oxo-1,6-dihydropyridazin-3-yl)piperidin-4-yl 4-cyclobutylpiperazine-1-carboxylate]
44 | 2.9 |  |  | CCn1nc(N2CCC(OC(=O)N3CCN(C(C)C)CC3)CC2)ccc1=O [Example 1.6, 1-(1-ethyl-6-oxo-1,6-dihydropyridazin-3-yl)piperidin-4-yl 4-isopropylpiperazine-1-carboxylate]
25 | 2.3 |  |  | O=C(OC1CCN(c2ccc(=O)[nH]n2)CC1)N1CCN(C2CC2)CC1 [Example 1.4, 1-(6-oxo-1,6-dihydropyridazin-3-yl)piperidin-4-yl 4-cyclopropylpiperazine-1-carboxylate]
1.2 | 1.6 |  |  | CC(C)N1CCN(C(=O)OC2CCN(c3ccc(=O)[nH]c3)CC2)CC1 [Example 3.1, 1-(6-oxo-1,6-dihydropyridin-3-yl)piperidin-4-yl 4-isopropylpiperazine-1-carboxylate]
 |  | good solubility |  | Cn1nc(N2CCC(OC(=O)N3CCN(C4CCC4)CC3)CC2)ccc1=O [Form A of the free from, 1-(1-methyl-6-oxo-1,6-dihydropyridazin-3-yl)piperidin-4-yl 4-cyclobutylpiperazine-1-carboxylate]
12 | 0.9 |  |  | CC(C)N1CCN(C(=O)OC2CCN(c3cc[nH]c(=O)c3)CC2)CC1 [Example 2.3, 1-(2-oxo-1,2-dihydropyridin-4-yl)piperidin-4-yl 4-isopropylpiperazine-1-carboxylate]
 |  |  | good solubility | Cn1nc(N2CCC(OC(=O)N3CCN(C4CCC4)CC3)CC2)ccc1=O [Form B of the free from, 1-(1-methyl-6-oxo-1,6-dihydropyridazin-3-yl)piperidin-4-yl 4-cyclobutylpiperazine-1-carboxylate]
